# Laboratory results: patent publication US11369556B2, “Oral care composition comprising rottlerin” (Colgate-Palmolive Company, priority 2017, dated 2022)
# Experiments:
# [1] = system: A. viscosus; assay: 10-hour bacterial growth, optical density readings, A. viscosus; format: cell-based, Actinomyces viscosus
# Experimental: (§1) In particular, Tables 1-3 illustrate 10-hour bacterial growth in terms of optical density (OD) readings taken at one-hour intervals, where the density readings represent the amount of bacteria present.
# (§2) The bacterial cultures were grown overnight and standardized to a 0.05 OD reading, after which, different concentrations of rottlerin were added, and the bacterial growth was monitored hourly for 10 hours using a plate reader.
# Table 2 illustrates three examples of A. viscosus bacterial growth: an untreated A. viscosus growth, a growth of A. viscosus after treatment with 10 μM of rottlerin, and a growth of A. viscosus after treatment with 20 μM of rottlerin.
# [2] = system: mixed species, equal amounts of S. oralis, S. mutans, and A. viscosus; assay: 10-hour bacterial growth, optical density readings, mixed species; format: cell-based
# Experimental: as §1, §2
# Finally, Table 3 illustrates three examples of mixed species bacterial growth, including equal amounts of S. oralis, S. mutans, and A. viscosus species: an untreated growth, a growth of the mixed species after treatment with 10 μM of rottlerin, and a growth of the mixed species after treatment with 20 μM of rottlerin.
# [3] = system: S. oralis; assay: 10-hour bacterial growth, optical density readings, S. oralis; format: cell-based, Streptococcus oralis
# Experimental: as §1, §2
# Table 1 illustrates three examples of S. oralis bacterial growth: one showing the untreated growth of S. oralis, another showing the growth of S. oralis after treatment with 10 μM of rottlerin, and a final example showing the growth of S. oralis after treatment with 20 μM of rottlerin.
# [4] = system: S. oralis; assay: Cell viability of S. oralis, resazurin assay; format: cell-based, Streptococcus oralis; settings: for Cell Viability: incubated 1 hour at 37° C.
# Experimental: (§3) S. ovalis is a representative streptococcus species of bacteria that colonize the oral cavity and may serve as a representative species for the efficacy of antimicrobial agents. Table 4 (below) illustrates the effects of rottlerin on the metabolic activity and cell viability of S. ovalis when treated with various concentrations of rottlerin. The metabolic activity of the S. ovalis bacteria was measured through ATP assays, and the cell viability was measured using a resazurin assay.
# In particular, the cell viability of S. oralis was measured through a resazurin assay as follows: A culture of S. oralis bacteria was grown and standardized to a 610˜0.6 OD. 500 μl of the S. oralis bacteria culture was then transferred to a clean and sterile micro-centrifuge tube. The tube was then centrifuged at greater than 15,000 g for 10 minutes to pellet the bacteria. The tube samples were then treated with different amounts of rottlerin and resuspended in 1 ml of 0.25× Trypticase soy broth (TSB) in water. Control and dead samples were created by resuspending the pellet bacteria in sterile media or 100% ethanol, and without adding rottlerin. The tubes were then inverted 3 times for mixing and incubated at 37° C. for 1 hour. Afterwards, 1 ml of D/E neutralizing broth was added to each tube and the samples in the tubes were then washed and stained. The tubes were then centrifuged at greater than 15,000 g for 10 minutes to pellet the bacteria again. The supernate was then removed and the bacteria was resuspended in 1 ml of sterile 0.25× TSB wash. Three 100 μl samples from each tube were then each individually plated in individual wells of a 96-well plate. The samples were then prepared for a standard analytic curve by combining fixed ratios of the live and dead control samples. 100 μl of the resazurin dye solution were then added to each well, and the 96-well plate was then incubated at 37° C. until the live control samples turned the appropriate pink color. A fluorescence plate reader was then used to read the fluorescence of the resazurin dye at 560 nm excitation/590 nm emission, and a percentage of live and dead cells was then calculated.
# [5] = system: S. oralis; assay: Metabolic activity of S. oralis, ATP assay; format: cell-based, Streptococcus oralis; settings: for Reduction of Metabolic Activity: incubated 1 hour at 37° C.
# Experimental: as §3
# Similarly, the metabolic activity was measured through an ATP assay as follows: A culture of S. oralis bacteria was grown and standardized to a 610˜0.6 OD. 500 μl of the S. ovalis bacteria culture was then transferred to a clean and sterile micro-centrifuge tube and treated as above. Three 100 μl samples from each tube were then individually plated in individual wells of a 96-well plate and 100 μl of Bactitre glow ATP reagent was added. The metabolic activity of the S. oralis bacteria was then monitored by measuring luminescence, with an increase in luminescence correlating with higher metabolic cells.
# [6] = low concentrations of rottlerin
compound,measurement,setting,value
"CC(=O)c1c(O)c(C)c(O)c(Cc2c(O)c3c(c(C(=O)/C=C/c4ccccc4)c2O)OC(C)(C)C=C3)c1O [rottlerin, 5,7-dihydro-2,2-dimethyl-6-(2,4,6-trihydroxy-3-methyl-5-acetylbenzyl)-8-cinnamoyl-1,2-chromene]",A. viscosus growth (OD),"[1]; 10 μM, exposure time 1 hour",0.105 OD
same,A. viscosus growth (OD),"[1]; 10 μM, exposure time 2 hours",0.112 OD
same,A. viscosus growth (OD),"[1]; 10 μM, exposure time 3 hours",0.104 OD
same,A. viscosus growth (OD),"[1]; 10 μM, exposure time 4 hours",0.093 OD
same,A. viscosus growth (OD),"[1]; 10 μM, exposure time 5 hours",0.091 OD
same,A. viscosus growth (OD),"[1]; 10 μM, exposure time 6 hours",0.087 OD
same,A. viscosus growth (OD),"[1]; 10 μM, exposure time 7 hours",0.084 OD
same,A. viscosus growth (OD),"[1]; 10 μM, exposure time 8 hours",0.085 OD
same,A. viscosus growth (OD),"[1]; 10 μM, exposure time 9 hours",0.082 OD
same,A. viscosus growth (OD),"[1]; 10 μM, exposure time 10 hours",0.079 OD
same,A. viscosus growth (OD),"[1]; 20 μM, exposure time 1 hour",0.105 OD
same,A. viscosus growth (OD),"[1]; 20 μM, exposure time 2 hours",0.122 OD
same,A. viscosus growth (OD),"[1]; 20 μM, exposure time 3 hours",0.121 OD
same,A. viscosus growth (OD),"[1]; 20 μM, exposure time 4 hours",0.115 OD
same,A. viscosus growth (OD),"[1]; 20 μM, exposure time 5 hours",0.113 OD
same,A. viscosus growth (OD),"[1]; 20 μM, exposure time 6 hours",0.106 OD
same,A. viscosus growth (OD),"[1]; 20 μM, exposure time 7 hours",0.1 OD
same,A. viscosus growth (OD),"[1]; 20 μM, exposure time 8 hours",0.097 OD
same,A. viscosus growth (OD),"[1]; 20 μM, exposure time 9 hours",0.091 OD
same,A. viscosus growth (OD),"[1]; 20 μM, exposure time 10 hours",0.086 OD
same,growth of bacteria compared to an untreated control,"[1]; A. viscosus, low concentrations of rottlerin (Table 2)",significantly reduced
same,Mixed species growth (OD),"[2]; 10 μM, exposure time 1 hour",0.088 OD
same,Mixed species growth (OD),"[2]; 10 μM, exposure time 3 hours",0.083 OD
same,Mixed species growth (OD),"[2]; 10 μM, exposure time 4 hours",0.081 OD
same,Mixed species growth (OD),"[2]; 10 μM, exposure time 5 hours",0.082 OD
same,Mixed species growth (OD),"[2]; 10 μM, exposure time 6 hours",0.079 OD
same,Mixed species growth (OD),"[2]; 10 μM, exposure time 7 hours",0.076 OD
same,Mixed species growth (OD),"[2]; 10 μM, exposure time 8 hours",0.073 OD
same,Mixed species growth (OD),"[2]; 10 μM, exposure time 9 hours (head of second time column, c2)",0.085 OD
same,Mixed species growth (OD),"[2]; 10 μM, exposure time 10 hours",0.070 OD
same,Mixed species growth (OD),"[2]; 20 μM, exposure time 1 hour",0.089 OD
same,Mixed species growth (OD),"[2]; 20 μM, exposure time 3 hours",0.090 OD
same,Mixed species growth (OD),"[2]; 20 μM, exposure time 4 hours",0.089 OD
same,Mixed species growth (OD),"[2]; 20 μM, exposure time 5 hours",0.088 OD
same,Mixed species growth (OD),"[2]; 20 μM, exposure time 6 hours",0.085 OD
same,Mixed species growth (OD),"[2]; 20 μM, exposure time 7 hours",0.082 OD
same,Mixed species growth (OD),"[2]; 20 μM, exposure time 8 hours",0.076 OD
same,Mixed species growth (OD),"[2]; 20 μM, exposure time 9 hours (head of second time column, c2)",0.091 OD
same,Mixed species growth (OD),"[2]; 20 μM, exposure time 10 hours",0.071 OD
same,growth of bacteria compared to an untreated control,"[2]; mixed species, low concentrations of rottlerin (Table 3)",significantly reduced
same,S. oralis growth (OD),"[3]; 10 μM, exposure time 1 hour",0.10 OD
same,S. oralis growth (OD),"[3]; 10 μM, exposure time 2 hours",0.095 OD
same,S. oralis growth (OD),"[3]; 10 μM, exposure time 3 hours",0.091 OD
same,S. oralis growth (OD),"[3]; 10 μM, exposure time 4 hours",0.088 OD
same,S. oralis growth (OD),"[3]; 10 μM, exposure time 5 hours",0.089 OD
same,S. oralis growth (OD),"[3]; 10 μM, exposure time 6 hours",0.091 OD
same,S. oralis growth (OD),"[3]; 10 μM, exposure time 7 hours",0.088 OD
same,S. oralis growth (OD),"[3]; 10 μM, exposure time 8 hours",0.075 OD
same,S. oralis growth (OD),"[3]; 10 μM, exposure time 9 hours",0.075 OD
same,S. oralis growth (OD),"[3]; 10 μM, exposure time 10 hours",0.074 OD
same,S. oralis growth (OD),"[3]; 20 μM, exposure time 1 hour",0.098 OD
same,S. oralis growth (OD),"[3]; 20 μM, exposure time 2 hours",0.099 OD
same,S. oralis growth (OD),"[3]; 20 μM, exposure time 3 hours",0.089 OD
same,S. oralis growth (OD),"[3]; 20 μM, exposure time 4 hours",0.088 OD
same,S. oralis growth (OD),"[3]; 20 μM, exposure time 5 hours",0.091 OD
same,S. oralis growth (OD),"[3]; 20 μM, exposure time 6 hours",0.090 OD
same,S. oralis growth (OD),"[3]; 20 μM, exposure time 7 hours",0.090 OD
same,S. oralis growth (OD),"[3]; 20 μM, exposure time 8 hours",0.081 OD
same,S. oralis growth (OD),"[3]; 20 μM, exposure time 9 hours",0.080 OD
same,S. oralis growth (OD),"[3]; 20 μM, exposure time 10 hours",0.079 OD
same,growth of bacteria compared to an untreated control,"[3]; S. oralis, low concentrations of rottlerin (Table 1)",significantly reduced
same,Cell Viability,[4]; Rottlerin Amt. 0.25 μg,79.5%
same,Cell Viability,[4]; Rottlerin Amt. 1.25 μg,61%
same,Cell Viability,[4]; Rottlerin Amt. 2.5 μg,49.4%
same,Cell Viability,[4]; Rottlerin Amt. 5 μg,41.1%
same,Cell Viability,[4]; Rottlerin Amt. 10 μg,25.9%
same,Cell Viability,[4]; Rottlerin Amt. 12.5 μg,19.9%
same,cell viability of S. oralis,[4]; [6],significantly negatively affected
same,Reduction of Metabolic Activity,[5]; Rottlerin Amt. 0.25 μg,40%
same,Reduction of Metabolic Activity,[5]; Rottlerin Amt. 1.25 μg,51%
same,Reduction of Metabolic Activity,[5]; Rottlerin Amt. 2.5 μg,60%
same,Reduction of Metabolic Activity,[5]; Rottlerin Amt. 5 μg,61%
same,Reduction of Metabolic Activity,[5]; Rottlerin Amt. 10 μg,72%
same,Reduction of Metabolic Activity,[5]; Rottlerin Amt. 12.5 μg,75%
same,metabolic activity of S. oralis,[5]; [6],significantly negatively affected
